ChEMBL document CHEMBL3991601, “The target landscape of clinical kinase drugs” (Science, 2017)
The source made the active and inactive calls. Cut-off read from the data, not from the text of the source, for most assays here: actives have a measured Kd and inactives only a lower limit.

Columns and labels:
[1] = molecular target: T1, Septin-9 (Homo sapiens, UniProt Q9UHD8)
T1 sequence (Q9UHD8 whole entry): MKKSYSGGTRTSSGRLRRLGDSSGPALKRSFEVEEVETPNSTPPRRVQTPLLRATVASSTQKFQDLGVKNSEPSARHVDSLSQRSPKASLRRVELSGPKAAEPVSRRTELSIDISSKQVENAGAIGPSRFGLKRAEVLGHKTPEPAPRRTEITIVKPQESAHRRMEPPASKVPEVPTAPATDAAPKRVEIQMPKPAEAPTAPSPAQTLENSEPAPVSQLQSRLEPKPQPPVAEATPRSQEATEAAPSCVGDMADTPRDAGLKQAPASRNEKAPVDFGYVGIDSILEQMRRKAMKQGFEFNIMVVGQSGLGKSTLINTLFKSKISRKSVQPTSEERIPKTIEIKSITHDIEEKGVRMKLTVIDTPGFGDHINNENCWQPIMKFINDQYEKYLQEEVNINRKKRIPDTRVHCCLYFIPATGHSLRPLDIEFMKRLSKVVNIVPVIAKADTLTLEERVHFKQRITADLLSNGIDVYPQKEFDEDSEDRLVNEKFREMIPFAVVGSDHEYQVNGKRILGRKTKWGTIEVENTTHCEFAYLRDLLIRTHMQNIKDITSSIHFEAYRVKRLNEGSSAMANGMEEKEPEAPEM

[2] = molecular target: T2, Glycine--tRNA ligase (Homo sapiens, UniProt P41250)
T2 sequence (P41250 whole entry): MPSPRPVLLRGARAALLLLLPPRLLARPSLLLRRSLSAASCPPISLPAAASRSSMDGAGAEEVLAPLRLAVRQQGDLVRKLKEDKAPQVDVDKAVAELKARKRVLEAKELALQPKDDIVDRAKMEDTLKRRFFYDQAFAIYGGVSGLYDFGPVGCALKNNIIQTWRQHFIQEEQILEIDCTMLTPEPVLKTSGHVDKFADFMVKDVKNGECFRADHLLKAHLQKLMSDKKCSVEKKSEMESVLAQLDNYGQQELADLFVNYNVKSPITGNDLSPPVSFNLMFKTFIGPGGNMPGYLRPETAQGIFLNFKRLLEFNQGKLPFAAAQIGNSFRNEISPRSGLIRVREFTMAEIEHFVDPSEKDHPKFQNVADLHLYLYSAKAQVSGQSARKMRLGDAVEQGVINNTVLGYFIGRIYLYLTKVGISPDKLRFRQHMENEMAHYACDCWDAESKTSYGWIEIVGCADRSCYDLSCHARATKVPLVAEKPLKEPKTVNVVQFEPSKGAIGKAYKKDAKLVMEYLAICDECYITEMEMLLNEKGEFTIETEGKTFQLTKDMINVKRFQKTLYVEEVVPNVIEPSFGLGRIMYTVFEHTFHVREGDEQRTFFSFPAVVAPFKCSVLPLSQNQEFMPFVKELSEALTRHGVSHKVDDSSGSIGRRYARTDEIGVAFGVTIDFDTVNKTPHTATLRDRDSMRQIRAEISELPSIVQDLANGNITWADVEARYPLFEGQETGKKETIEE

[3] = molecular target: Ribosomal protein S6 kinase alpha-4 (Homo sapiens, UniProt O75676)
Sequence of Ribosomal protein S6 kinase alpha-4 (O75676 whole entry): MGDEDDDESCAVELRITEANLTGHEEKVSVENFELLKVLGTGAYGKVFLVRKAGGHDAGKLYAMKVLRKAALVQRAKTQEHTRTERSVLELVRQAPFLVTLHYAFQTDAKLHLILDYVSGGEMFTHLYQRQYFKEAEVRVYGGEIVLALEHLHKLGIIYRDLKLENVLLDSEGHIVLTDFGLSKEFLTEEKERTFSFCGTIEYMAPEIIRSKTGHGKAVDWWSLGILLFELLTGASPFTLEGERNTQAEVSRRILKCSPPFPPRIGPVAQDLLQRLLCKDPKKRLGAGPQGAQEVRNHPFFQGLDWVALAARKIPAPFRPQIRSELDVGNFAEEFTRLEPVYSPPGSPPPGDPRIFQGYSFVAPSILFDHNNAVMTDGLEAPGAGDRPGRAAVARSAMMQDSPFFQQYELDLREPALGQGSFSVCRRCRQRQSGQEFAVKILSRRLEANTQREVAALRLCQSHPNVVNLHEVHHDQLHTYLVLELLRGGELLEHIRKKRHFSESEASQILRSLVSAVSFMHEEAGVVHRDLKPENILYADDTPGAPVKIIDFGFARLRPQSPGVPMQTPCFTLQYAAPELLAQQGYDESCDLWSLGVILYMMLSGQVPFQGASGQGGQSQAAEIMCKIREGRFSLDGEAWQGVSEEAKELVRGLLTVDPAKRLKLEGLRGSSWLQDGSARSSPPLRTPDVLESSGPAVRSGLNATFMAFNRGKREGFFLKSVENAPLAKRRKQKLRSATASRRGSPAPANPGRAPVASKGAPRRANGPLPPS

[4] = molecular target: Receptor-interacting serine/threonine-protein kinase 3 (Homo sapiens, UniProt Q9Y572)
Sequence of Receptor-interacting serine/threonine-protein kinase 3 (Q9Y572 whole entry): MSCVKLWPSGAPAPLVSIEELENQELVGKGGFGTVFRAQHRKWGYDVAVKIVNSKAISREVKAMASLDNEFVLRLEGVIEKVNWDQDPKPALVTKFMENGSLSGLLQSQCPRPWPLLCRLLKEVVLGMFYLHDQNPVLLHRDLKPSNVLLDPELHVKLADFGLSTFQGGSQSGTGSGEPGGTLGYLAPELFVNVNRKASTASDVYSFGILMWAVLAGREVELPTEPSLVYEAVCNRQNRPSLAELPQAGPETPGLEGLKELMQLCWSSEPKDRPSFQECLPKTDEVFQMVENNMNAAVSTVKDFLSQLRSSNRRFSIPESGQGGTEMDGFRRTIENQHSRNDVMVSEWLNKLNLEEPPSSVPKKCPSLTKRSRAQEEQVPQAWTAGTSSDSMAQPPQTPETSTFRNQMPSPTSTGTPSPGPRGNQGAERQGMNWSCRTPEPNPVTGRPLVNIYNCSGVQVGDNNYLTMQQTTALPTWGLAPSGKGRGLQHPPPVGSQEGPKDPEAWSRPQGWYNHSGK

[5] = molecular target: Glycogen synthase kinase-3 alpha (Homo sapiens, UniProt P49840)
Sequence of Glycogen synthase kinase-3 alpha (P49840 whole entry, the tested form may be a part): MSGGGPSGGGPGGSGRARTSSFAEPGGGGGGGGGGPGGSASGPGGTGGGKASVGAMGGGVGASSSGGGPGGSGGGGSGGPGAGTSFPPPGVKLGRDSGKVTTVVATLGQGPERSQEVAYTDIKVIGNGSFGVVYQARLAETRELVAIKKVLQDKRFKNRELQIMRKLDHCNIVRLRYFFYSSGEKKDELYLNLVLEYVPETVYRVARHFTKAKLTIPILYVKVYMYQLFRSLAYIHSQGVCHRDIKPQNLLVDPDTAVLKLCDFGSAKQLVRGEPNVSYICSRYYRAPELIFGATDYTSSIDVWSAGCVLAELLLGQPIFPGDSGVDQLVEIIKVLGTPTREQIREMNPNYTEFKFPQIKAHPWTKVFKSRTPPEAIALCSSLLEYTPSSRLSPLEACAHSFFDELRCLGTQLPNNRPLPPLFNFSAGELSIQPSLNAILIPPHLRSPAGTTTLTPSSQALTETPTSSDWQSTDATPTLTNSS

[6] = molecular target: T3, AarF domain-containing protein kinase 1 (Homo sapiens, UniProt Q86TW2)
T3 sequence (Q86TW2 whole entry): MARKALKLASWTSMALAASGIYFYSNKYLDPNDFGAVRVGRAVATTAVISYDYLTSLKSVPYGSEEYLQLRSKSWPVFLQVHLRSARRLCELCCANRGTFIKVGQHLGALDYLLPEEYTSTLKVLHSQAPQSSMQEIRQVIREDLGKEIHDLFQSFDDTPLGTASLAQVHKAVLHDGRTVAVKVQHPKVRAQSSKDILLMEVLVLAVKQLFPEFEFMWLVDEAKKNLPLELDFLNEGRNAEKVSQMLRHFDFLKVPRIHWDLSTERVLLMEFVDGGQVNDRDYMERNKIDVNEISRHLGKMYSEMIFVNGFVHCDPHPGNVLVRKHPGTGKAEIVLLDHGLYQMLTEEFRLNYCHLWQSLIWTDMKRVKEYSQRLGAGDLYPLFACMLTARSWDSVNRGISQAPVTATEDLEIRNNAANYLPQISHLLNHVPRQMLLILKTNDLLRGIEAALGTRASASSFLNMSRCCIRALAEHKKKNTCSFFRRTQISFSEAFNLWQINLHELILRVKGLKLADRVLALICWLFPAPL

[7] = molecular target: Rho-associated protein kinase 1 (Homo sapiens, UniProt Q13464)
Sequence of Rho-associated protein kinase 1 (Q13464 whole entry): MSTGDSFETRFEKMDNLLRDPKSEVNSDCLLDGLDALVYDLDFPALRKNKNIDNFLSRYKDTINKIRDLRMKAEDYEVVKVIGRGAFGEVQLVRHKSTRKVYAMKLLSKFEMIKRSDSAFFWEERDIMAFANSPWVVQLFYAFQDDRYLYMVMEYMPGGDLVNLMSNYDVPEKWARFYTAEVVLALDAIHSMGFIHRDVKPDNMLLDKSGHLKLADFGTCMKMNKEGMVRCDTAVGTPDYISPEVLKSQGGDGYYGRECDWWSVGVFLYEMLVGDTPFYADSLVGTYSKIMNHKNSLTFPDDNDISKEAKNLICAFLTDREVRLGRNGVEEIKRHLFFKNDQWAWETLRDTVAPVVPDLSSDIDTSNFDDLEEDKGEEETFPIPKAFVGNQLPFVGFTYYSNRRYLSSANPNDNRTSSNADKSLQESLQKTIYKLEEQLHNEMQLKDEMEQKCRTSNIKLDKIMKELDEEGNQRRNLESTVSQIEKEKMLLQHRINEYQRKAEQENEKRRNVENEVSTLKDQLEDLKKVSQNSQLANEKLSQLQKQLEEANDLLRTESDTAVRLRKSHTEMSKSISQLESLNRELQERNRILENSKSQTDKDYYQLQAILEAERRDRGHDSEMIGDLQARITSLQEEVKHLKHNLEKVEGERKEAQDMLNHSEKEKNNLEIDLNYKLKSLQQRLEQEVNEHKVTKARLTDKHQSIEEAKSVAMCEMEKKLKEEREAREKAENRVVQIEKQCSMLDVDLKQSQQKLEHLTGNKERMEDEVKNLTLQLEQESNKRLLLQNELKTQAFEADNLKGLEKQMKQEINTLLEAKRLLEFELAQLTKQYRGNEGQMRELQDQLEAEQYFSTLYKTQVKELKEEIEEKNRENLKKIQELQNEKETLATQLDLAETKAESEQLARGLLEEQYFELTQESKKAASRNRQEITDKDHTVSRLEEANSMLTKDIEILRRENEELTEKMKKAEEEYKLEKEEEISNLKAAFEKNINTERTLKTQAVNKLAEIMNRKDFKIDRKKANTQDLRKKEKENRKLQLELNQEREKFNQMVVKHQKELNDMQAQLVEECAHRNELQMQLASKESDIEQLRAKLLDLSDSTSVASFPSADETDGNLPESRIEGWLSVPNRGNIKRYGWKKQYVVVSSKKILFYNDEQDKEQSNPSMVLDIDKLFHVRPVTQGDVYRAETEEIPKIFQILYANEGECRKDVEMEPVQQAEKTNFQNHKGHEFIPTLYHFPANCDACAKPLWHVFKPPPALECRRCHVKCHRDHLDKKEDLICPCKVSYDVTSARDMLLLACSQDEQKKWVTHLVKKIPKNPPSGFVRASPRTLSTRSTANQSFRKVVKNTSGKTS

[8] = molecular target: Platelet-derived growth factor receptor beta (Homo sapiens, UniProt P09619)
Sequence of Platelet-derived growth factor receptor beta (P09619 whole entry): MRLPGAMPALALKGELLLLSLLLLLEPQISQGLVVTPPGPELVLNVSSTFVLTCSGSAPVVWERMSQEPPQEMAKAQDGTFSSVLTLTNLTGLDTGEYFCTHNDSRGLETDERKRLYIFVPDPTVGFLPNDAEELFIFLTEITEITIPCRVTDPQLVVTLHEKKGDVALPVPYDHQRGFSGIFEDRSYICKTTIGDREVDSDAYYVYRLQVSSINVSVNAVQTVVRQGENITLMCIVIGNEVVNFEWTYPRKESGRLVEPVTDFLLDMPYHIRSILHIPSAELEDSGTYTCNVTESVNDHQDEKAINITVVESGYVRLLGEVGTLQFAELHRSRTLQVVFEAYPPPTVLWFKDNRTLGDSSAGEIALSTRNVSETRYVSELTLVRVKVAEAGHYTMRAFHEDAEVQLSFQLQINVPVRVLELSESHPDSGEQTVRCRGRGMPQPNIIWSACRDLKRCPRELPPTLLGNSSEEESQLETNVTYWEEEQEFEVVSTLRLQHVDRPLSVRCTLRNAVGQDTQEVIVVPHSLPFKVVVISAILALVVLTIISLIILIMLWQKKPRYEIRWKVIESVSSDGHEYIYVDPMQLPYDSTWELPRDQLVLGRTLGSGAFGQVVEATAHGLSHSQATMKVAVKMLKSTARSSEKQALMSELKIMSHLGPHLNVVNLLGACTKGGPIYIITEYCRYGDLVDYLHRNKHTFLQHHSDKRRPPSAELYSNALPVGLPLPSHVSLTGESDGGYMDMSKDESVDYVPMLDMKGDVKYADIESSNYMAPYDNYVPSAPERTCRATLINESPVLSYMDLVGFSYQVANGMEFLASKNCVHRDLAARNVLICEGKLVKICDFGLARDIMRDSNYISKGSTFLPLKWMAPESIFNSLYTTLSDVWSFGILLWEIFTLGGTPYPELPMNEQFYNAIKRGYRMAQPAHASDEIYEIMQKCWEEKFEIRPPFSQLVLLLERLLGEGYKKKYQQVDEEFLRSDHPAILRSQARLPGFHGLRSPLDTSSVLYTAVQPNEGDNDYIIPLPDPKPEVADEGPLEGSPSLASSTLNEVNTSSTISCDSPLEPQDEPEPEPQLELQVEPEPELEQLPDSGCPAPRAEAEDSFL
Note: in the data inactive means no Kd found up to 30 µM.

SMILES	Kd [1]	Kd [2]	Kd [3]	Kd [4]	Kd [5]	Kd [6]	Kd [7]	Kd [8]
CNC(=O)c1ccc(C)c(-n2c(C)cc(OCc3ccc(F)cc3F)c(Br)c2=O)c1 [PH-797804]	> 30 µM (inactive)	> 30 µM (inactive)	> 30 µM (inactive)	> 30 µM (inactive)	> 30 µM (inactive)	> 30 µM (inactive)	> 30 µM (inactive)	> 30 µM (inactive)
COC(=O)[C@@]1(O)C[C@H]2O[C@]1(C)n1c3ccccc3c3c4c(c5c6ccccc6n2c5c31)C(=O)NC4 [K-252A]	> 30 µM (inactive)	> 30 µM (inactive)	0.432 µM (active)	> 30 µM (inactive)	> 30 µM (inactive)	6.09 µM (active)	> 30 µM (inactive)	1.01 µM (active)
C[C@@H](c1ccc2nccn2c1)n1nnc2ncc(-c3cnn(C)c3)nc21 [SAVOLITINIB]	> 30 µM (inactive)	> 30 µM (inactive)	> 30 µM (inactive)	> 30 µM (inactive)	> 30 µM (inactive)	> 30 µM (inactive)	> 30 µM (inactive)	> 30 µM (inactive)
CN1CCC(COc2cnc(-c3cccc(Cn4nc(-c5cccc(C#N)c5)ccc4=O)c3)nc2)CC1 [TEPOTINIB]	> 30 µM (inactive)	> 30 µM (inactive)	> 30 µM (inactive)	> 30 µM (inactive)	> 30 µM (inactive)	> 30 µM (inactive)	> 30 µM (inactive)	> 30 µM (inactive)
COc1cc(N2CCC(N3CCN(C)CC3)CC2)ccc1Nc1ncnc(Nc2ccccc2S(=O)(=O)C(C)C)n1 [ASP-3026]	> 30 µM (inactive)	> 30 µM (inactive)	> 30 µM (inactive)	> 30 µM (inactive)	> 30 µM (inactive)	> 30 µM (inactive)	> 30 µM (inactive)	> 30 µM (inactive)
CNC(=O)c1ccc(-c2cnc3ncc(Cc4ccc5ncccc5c4)n3n2)cc1F [CAPMATINIB]	> 30 µM (inactive)	> 30 µM (inactive)	> 30 µM (inactive)	> 30 µM (inactive)	> 30 µM (inactive)	> 30 µM (inactive)	> 30 µM (inactive)	> 30 µM (inactive)
CCn1c(=O)c(-c2cc[nH]n2)cc2c(C)nc(N)nc21 [VOXTALISIB]	> 30 µM (inactive)	> 30 µM (inactive)	> 30 µM (inactive)	> 30 µM (inactive)	> 30 µM (inactive)	> 30 µM (inactive)	> 30 µM (inactive)	> 30 µM (inactive)
Cc1cc2c(F)c(Oc3ncnn4cc(OC[C@@H](C)OC(=O)[C@H](C)N)c(C)c34)ccc2[nH]1 [BRIVANIB ALANINATE]	> 30 µM (inactive)	> 30 µM (inactive)	> 30 µM (inactive)	> 30 µM (inactive)	> 30 µM (inactive)	> 30 µM (inactive)	> 30 µM (inactive)	1.89 µM (active)
COc1cc(OC)c(/C=C/S(=O)(=O)Cc2ccc(OC)c(NCC(=O)O)c2)c(OC)c1 [RIGOSERTIB]	> 30 µM (inactive)	> 30 µM (inactive)	> 30 µM (inactive)	> 30 µM (inactive)	> 30 µM (inactive)	> 30 µM (inactive)	> 30 µM (inactive)	> 30 µM (inactive)
C=CC(=O)N1CCC(Oc2cc3c(Nc4ccc(Cl)c(Cl)c4F)ncnc3cc2OC)CC1 [POZIOTINIB]	> 30 µM (inactive)	> 30 µM (inactive)	> 30 µM (inactive)	0.392 µM (active)	> 30 µM (inactive)	> 30 µM (inactive)	> 30 µM (inactive)	> 30 µM (inactive)
Cc1ccc(-n2nc(C(C)(C)C)cc2NC(=O)NCc2cc(F)ccc2Oc2ccc3c(cnn3CCO)c2)cc1 [PEXMETINIB]	> 30 µM (inactive)	> 30 µM (inactive)	> 30 µM (inactive)	0.662 µM (active)	> 30 µM (inactive)	> 30 µM (inactive)	> 30 µM (inactive)	> 30 µM (inactive)
Cn1cc(-c2ccc(F)c(C(F)(F)F)c2)nc1C1CCN(c2ncnc3[nH]ncc23)CC1 [LY-2584702]	> 30 µM (inactive)	> 30 µM (inactive)	> 30 µM (inactive)	> 30 µM (inactive)	> 30 µM (inactive)	> 30 µM (inactive)	> 30 µM (inactive)	> 30 µM (inactive)
CC[C@H](Nc1ncnc2[nH]cnc12)c1nc2cccc(F)c2c(=O)n1-c1ccccc1 [IDELALISIB]	> 30 µM (inactive)	> 30 µM (inactive)	> 30 µM (inactive)	> 30 µM (inactive)	> 30 µM (inactive)	> 30 µM (inactive)	> 30 µM (inactive)	> 30 µM (inactive)
O=C1NC(=O)/C(=C/c2ccc3nccc(-c4ccncc4)c3c2)S1 [GSK-1059615]	> 30 µM (inactive)	> 30 µM (inactive)	0.499 µM (active)	> 30 µM (inactive)	> 30 µM (inactive)	> 30 µM (inactive)	> 30 µM (inactive)	> 30 µM (inactive)
CN1N=C(N)c2cn([C@@H]3O[C@H](COP(=O)(O)O)[C@@H](O)[C@H]3O)c3ncnc1c23 [TRICIRIBINE PHOSPHATE]	> 30 µM (inactive)	> 30 µM (inactive)	> 30 µM (inactive)	> 30 µM (inactive)	> 30 µM (inactive)	> 30 µM (inactive)	> 30 µM (inactive)	> 30 µM (inactive)
CN1CCC(CNc2ccc3ncc(-c4cccc(OC(F)(F)F)c4)n3n2)CC1 [SGI-1776]	> 30 µM (inactive)	> 30 µM (inactive)	> 30 µM (inactive)	> 30 µM (inactive)	> 30 µM (inactive)	> 30 µM (inactive)	> 30 µM (inactive)	1.61 µM (active)
CC[C@@H]1C(=O)N(C)c2cnc(Nc3ccc(C(=O)N[C@H]4CC[C@H](N5CCN(CC6CC6)CC5)CC4)cc3OC)nc2N1C(C)C [VOLASERTIB]	> 30 µM (inactive)	> 30 µM (inactive)	> 30 µM (inactive)	> 30 µM (inactive)	> 30 µM (inactive)	> 30 µM (inactive)	> 30 µM (inactive)	> 30 µM (inactive)
CN1CC[C@@H](c2c(O)cc(O)c3c(=O)cc(-c4ccccc4Cl)oc23)[C@@H]1CO	> 30 µM (inactive)	> 30 µM (inactive)	> 30 µM (inactive)	> 30 µM (inactive)	> 30 µM (inactive)	> 30 µM (inactive)	> 30 µM (inactive)	> 30 µM (inactive)
Cc1ccc(S(=O)(=O)Nc2nc3ccccc3nc2Nc2ccc3nsnc3c2)cc1	> 30 µM (inactive)	> 30 µM (inactive)	> 30 µM (inactive)	> 30 µM (inactive)	> 30 µM (inactive)	> 30 µM (inactive)	> 30 µM (inactive)	> 30 µM (inactive)
COc1cc2nccc(Oc3ccc(NC(=O)NC4CC4)c(Cl)c3)c2cc1C(N)=O [LENVATINIB]	> 30 µM (inactive)	> 30 µM (inactive)	> 30 µM (inactive)	0.316 µM (active)	> 30 µM (inactive)	> 30 µM (inactive)	> 30 µM (inactive)	0.316 µM (active)
